From US7238710B2, “EP4 receptor agonist, compositions and methods thereof” (Merck Frosst Canada, Ltd., priority 2003, dated 2007) come the findings set out here.

Molecules are shown by their SMILES. Entries after “also recorded” stand apart in the source; their conditions may differ.

The test system of test [1] is RCT-3 cells. In words: EP4 mRNA expression (Northern blot) in RCT-3 cells. The class given is cell-based, rat. The procedure:
(§1) RCT-1 and RCT-3 are clonal cell lines immortalized by SV-40 large T antigen from cells released from fetal rat calvair by a cmbination collagenase/hyaluronidase digestion. RCT-1 cells, derived from cells released during the first 10 minutes of digestion (fraction I), are cultured in RPMI 1640 medium (BRL) with 10% fetal bovine serum and 0.4 mg/ml G418 (BRL). These cells differentiate and express osteoblastic features upon retinoic acid treatment. RCT-3 cells, immortalized from osteoblast-enriched fraction III cells, are cultured in F-12 medium (BRL) with 5% Fetal bovine serum and 0.4 mg/ml G418. TRAB-11 cells are also immortalized by SV40 large T antigen from adult rat tibia and are cultured in RPMI 1640 medium with 10% FBS and 0.4 mg/ml G418. ROS 17/2.8 rat osteosarcoma cells are cultured in F-12 containing 5% FBS. Osteoblast-enriched (fraction III) primary fetal rat calvaria cells are obtained by collagenase/hyaluronidase digestion of calvariae of 19 day-old rat fetuses. See Rodan et al., Growth stimulation of rat calvaria osteoblastic cells by acidic FGF, Endocrinology, 121, 1919-1923 (1987), which is incorporated by reference herein in its entirety. Cells are released during 30-50 minutes digestion (fraction III) and are cultured in F-12 medium containing 5% FBS. […]

In test [2] the test system is TRAB-11 cells. As to the kind of experiment: Intracellular cAMP in TRAB-11 cells. The class given is cell-based, rat. The procedure: as §1
Test [3] deals with bone marrow cells. In words: In situ hybridization of EP4 mRNA in bone tissue. The class given is in vivo, rat. The conditions noted are these: rats, single anabolic dose. The procedure:
(§2) For mRNA localization experiments, 5-week old Sprague-Dawley rats (Charles River) are euthanized by CO2, their tibiae and calvariae are excised, cleaned of soft tissues and frozen immediately in liquid nitrogen. For EP4 regulation experiments, 6-week old rats are given a single injection of either vehicle (7% ethanol in sterile water) or an anabolic dose of PGE2 (Cayman Chemical, Ann Arbor, Mich.), 3-6 mg/kg in the same vehicle) intraperitoneally. Animals are euthanized at several time points post-injection and their tibiae and calvariae, as well as samples from lung and kidney tissues are frozen in liquid nitrogen.
Frozen tibiae are sectioned coronally at […] thickness and sections are mounted on charged slides (Probe On Plus, Fisher Scientific, Springfield, N.J.) and are kept at −70° C. until hybridization. cRNA probes are labeled with ^35S-UTPgS (ICN, Costa Mesa, Calif.) using a Riboprobe II kit (Promega Madison, Wis.). Hybridization is performed overnight at 50° C. […]
In situ hybridization is used in order to localize cells expressing EP4 in bone. In control experiment (vehicle-injected) rats, low expression of EP4 is detected in bone marrow cells. […]

The subject of test [4] is RCT-3 cells. In words: Intracellular cAMP in RCT-3 cells. The class given is cell-based, rat. How it is done:
as §1

Test [5] relates to ROS 17/2.8 rat osteosarcoma cells. As to the kind of experiment: Intracellular cAMP in ROS 17/2.8 cells. Type of test: cell-based. How it is done: as §1
For test [6], the system named is RP-1 periosteal cells. In words: EP4 and EP2 mRNA expression (Northern blot) in RP-1 periosteal cells. The following applies: RP-1 cells. The class given is cell-based, rat. The procedure:
RP-1 periosteal cells are spontaneously immortalized from primary cultures of periosteal cells from tibae of 4-week old Sprague-Dawley rats and are cultured in DMEM (BRL, Gaithersburg, Md.) with 10% fetal bovine serum (JRH Biosciences, Lenexa, Kans.).
(§3) Total RNA is extracted from the tibial metaphysis or diaphysis and calvaria using a guanidinium isothiocyanate-phenol-chloroform method after pulverizing frozen bone samples by a tissue homogenizer. See P. Chomczynski et al., Single-step method of RNA isolation by acid guanidium thiocyanate-phenol-chloroform extraction., Analyt Biochem, 162, 156-159 (1987), which is incorporated by reference herein in its entirety. RNA samples ([…]) are separated on 0.9% agarose/formaldehyde gels and transferred onto nylon membranes (Boehringer Mannheim, Germany). Membranes are prehybridized in Hybrisol I (Oncor, Gaithersburg, Md.) and 0.5 mg/ml sonicated salmon sperm DNA (Boehringer) at 42° C. for 3 hours and are hybridized at 42° C. with rat EP2 and mouse EP4 cDNA probes labeled with [^32P]dCTP (Amersham, Buckinghamshire, UK) by random priming using the rediprime kit (Amersham). After hybridization, membranes are washed 4 times in 2×SSC+0.1% SDS at room temperature for a total of 1 hour and once with 0.2×SSC+0.1% SDS at 55° C. for 1 hour and then exposed to Kodak XAR 2 film at −70° C. using intensifying screens. After developing the films, bound probes are removed twice with 0.1% SDS at 80° C. and membranes are hybridized with a human GAPDH (Glyceraldehyde 3-Phosphate Dehydrogenase) cDNA probe (purchased from Clontech, Palo Alto, Calif.) for loading control.
PGE2 enhances its own production via upregulation of cyclooxygenase 2 expression in osteoblasts and in bone tissue thus autoamplifying its own effects. PGE2 also increases the levels of EP4 mRNA. RP-1 cells are immortalized from a primary culture of adult rat tibia periosteum is examined. These cells express osteoblast phenotypic markers upon confluence and form mineralized bone matrix when implanted in nude mice. […]

The subject of test [7] is bone tissue (tibia, calvaria). In words: EP4 and EP2 mRNA levels in vivo in bone tissue (Northern blot). On the set-up: species or system rat. The procedure: as §2
as §3, with “control. […]” for “control.”

Where [8] appears, read: five-week-old male rats, injected 3-6 mg/Kg.

As for `CCCCC[C@H](O)/C=C/[C@H]1[C@H](O)CC(=O)[C@@H]1C/C=C\CCCC(=O)O` [PGE2], the “EP4 mRNA levels” value in test [1] is “no effect”; in test [6] (10^-6 M), “rapidly increases”. For the same molecule, the “effect on intracellular cAMP” value in test [2] is given as “markedly induced”; in test [4], “markedly induced”; in test [5], “no effect”. The “expression of EP4 in bone marrow cells” value in test [3] is “increased”. Moreover, the “EP2 mRNA” value in test [6] was “not expressed; also recorded: does not induce”. Moreover, in test [6] (10^-6 M), the “time of peak EP4 mRNA levels after treatment” value was 2 h. The “EP4 mRNA levels in the tibial diaphysis” value in test [7] (setting [8]) is reported as “rapidly increased”. In addition, the “time of peak EP4 mRNA levels in the tibial diaphysis after injection” value in test [7] (setting [8]) turned out to be 2 h. In addition, the “EP2 mRNA in bone tissue” value in test [7] (rats) was “does not induce”.
